Columns and labels:
[1] = water-soluble sodium carboxylate salt; cited from earlier work
[2] = Pharmacokinetics of CPT in human plasma, lactone half-life; assay type: in vitro ADME
[3] = Plasma CPT after intrastomach administration in mice, closed lactone share of AUC; assay type: in vivo
[4] = Plasma CPT after oral administration in humans, closed lactone share of AUC; assay type: in vivo
[5] = Plasma levels of 9NC after i.s. administration, share in closed lactone form; assay type: in vivo; conditions: species not given, mice from b8 and b10
[6] = Plasma levels of 9NC after oral administration to Phase I clinical trial patients, share in closed lactone form; assay type: in vivo, humans; conditions: on average
[7] = test system: human tumor xenografts; experiment: Antitumor activity against human tumor xenografts in mice; assay type: in vivo
Text: (§1) Clearly, there is a pressing need for a modification which will slow and delay the lactone ring opening upon its entrance into the blood circulation.

[8] = test system: tumors; experiment: Clinical responses in Phase I patients; assay type: in vivo; conditions: in humans
Text: as §1

[9] = test system: human tumor xenografts; conditions: in mice; cited from earlier work

Q: With `CC[C@@](O)(C(=O)[O-])c1cc2n(c(=O)c1CO)Cc1cc3ccccc3nc1-2.[Na+]` [sodium carboxylate salt] as the compound, how does the “anticancer activity in clinical evaluation” value [1] read?
A: Its value is “devoid of anticancer activity”.

Q: And the “toxicity in clinical evaluation” value [1]?
A: Its value is “severe toxicity”.

Q: For 20(S)-camptothecin [CPT], which “half-life time of the drug with lactone intact” value [2] is on record?
A: Its value is 30 min.

Q: And the “closed lactone form, share of the area under the curve” value [3]?
A: Its value is “approximately 54%”.

Q: And the “closed lactone ring form, share of the area under the curve” value [4]?
A: Its value is “about 0.4%”.

Q: What does the source list for `CC[C@@]1(O)C(=O)OCc2c1cc1n(c2=O)Cc2cc3c([N+](=O)[O-])cccc3nc2-1` [Example 9NC, 9-nitrocamptothecin]?
A: share of drug present in the plasma in the closed lactone form [5]: 57%; share of drug present in plasma in the closed lactone form [6]: ~3%; complete tumor regressions [7]: 32/32; complete tumor regressions [8]: 2/32; potency relative to CPT against human tumor xenografts [9]: 2-3 times
